The values that follow come from PubChem BioAssay (NCI).

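Compound exposure: 48 hours, 5 concentrations, 96-well plates. Here, GI50 denotes the concentration required for 50% inhibition of growth. TGI: concentration producing complete growth inhibition.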

Test systems include HCT-15 colon; SF-295 CNS; SK-MEL-2 melanoma; 786-0 renal; SR leukemia; A549 NSCLC; MALME-3M melanoma; HCC-2998 colon.
Common to all, as to assay: NCI-60 cell line screen, 48 h

As to `CCC(C)C(=O)OC1CCC=C2C=CC(C)C(CCC3CC(O)CC(=O)O3)C21` (centres undefined), the TGI in the assay on HCT-15 colon was greater than 100 µM; with SF-295 CNS, greater than 100 µM; with SK-MEL-2 melanoma, greater than 100 µM; in the assay with 786-0 renal it was greater than 65.9 µM; with SR leukemia, greater than 51 µM; in the assay with A549 NSCLC, greater than 100 µM. For the same molecule, the TGI in the assay with MALME-3M melanoma and with HCC-2998 colon was greater than 100 µM throughout.
For the molecule `CCS(=O)(=O)N1CCN(c2ccc(Nc3ncc(C(N)=O)c(NC4CC4)n3)cc2)CC1`, the GI50 with HCT-15 colon was 2.64 µM; in the assay on SF-295 CNS, 5.01 µM; with SK-MEL-2 melanoma, 4.62 µM; in the assay on 786-0 renal, 5.31 µM; with SR leukemia, 2.78 µM; in the assay on A549 NSCLC, 19 µM. In addition, the values for the GI50 in the assay on MALME-3M melanoma and in the assay with HCC-2998 colon were 20 µM and 23.8 µM, respectively. In addition, the TGI was 27.1 µM in the assay on HCT-15 colon; 94.3 µM with SF-295 CNS; 21.4 µM in the assay with SK-MEL-2 melanoma; greater than 100 µM in the assay on 786-0 renal; 23.4 µM in the assay on SR leukemia; greater than 100 µM in the assay with A549 NSCLC. The figures for the TGI in the assay on MALME-3M melanoma and in the assay with HCC-2998 colon were 85.2 µM and greater than 100 µM, respectively.
Take `CCN(CC)CCCC(C)Nc1ccnc(/C=C/c2ccc(Cl)cc2)c1` (centres undefined): the TGI is 6.35 µM in the assay with HCT-15 colon; 6.3 µM in the assay on SF-295 CNS; 4.25 µM with SK-MEL-2 melanoma; 3.45 µM in the assay on 786-0 renal; greater than 27.2 µM with SR leukemia; 4.79 µM in the assay with A549 NSCLC. Besides, the TGI amounted to 3.08 µM in the assay with MALME-3M melanoma and 4.03 µM in the assay with HCC-2998 colon.
Take `C=C1C(=O)O[C@H]2[C@H]1CC/C(COC(=O)/C=C\C(=O)NCc1ccc(Cn3c(=O)sn(-c4ccc(Cl)cc4)c3=O)cc1)=C\CC[C@@]1(C)O[C@@H]21`: the GI50 with HCT-15 colon was 0.331 µM; with SF-295 CNS, 3.11 µM; in the assay with SK-MEL-2 melanoma, 0.904 µM; in the assay on 786-0 renal, 0.658 µM; in the assay with SR leukemia, 0.24 µM; with A549 NSCLC, 0.871 µM. The figures for the GI50 in the assay with MALME-3M melanoma and in the assay with HCC-2998 colon were 0.852 µM and 0.896 µM, respectively. The TGI in the assay on HCT-15 colon was found to be 1.47 µM; in the assay on SF-295 CNS, 8.8 µM; in the assay on SK-MEL-2 melanoma, 1.89 µM; in the assay with 786-0 renal, 1.39 µM; in the assay on SR leukemia it was 12.3 µM; with A549 NSCLC, 2.35 µM. Also, the values for the TGI in the assay on MALME-3M melanoma and in the assay on HCC-2998 colon were 1.63 µM and 1.7 µM, respectively.
For `CCSCCCC(=O)O`, the TGI with HCT-15 colon, in the assay on SF-295 CNS, in the assay with SK-MEL-2 melanoma, in the assay on 786-0 renal, in the assay on SR leukemia and in the assay with A549 NSCLC was greater than 100 µM each time. Further, the TGI in the assay with MALME-3M melanoma and with HCC-2998 colon was greater than 100 µM throughout.
As for `CC(=O)c1ccc(Oc2c3ccccc3nc3occc23)cc1`, the GI50 is 2.39 µM in the assay on HCT-15 colon; 2.02 µM in the assay with SF-295 CNS; greater than 100 µM with SK-MEL-2 melanoma; 33.3 µM with 786-0 renal; 0.842 µM in the assay on SR leukemia; 61.9 µM in the assay with A549 NSCLC. Besides, the GI50 with MALME-3M melanoma is 4.14 µM; in the assay with HCC-2998 colon, 6.35 µM. Also, the TGI in the assay on HCT-15 colon is 72.4 µM; with SF-295 CNS, 12.5 µM; in the assay with SK-MEL-2 melanoma, greater than 100 µM; in the assay with 786-0 renal, greater than 100 µM; with SR leukemia, greater than 100 µM; with A549 NSCLC, greater than 100 µM. Besides, the TGI in the assay on MALME-3M melanoma is greater than 100 µM; in the assay with HCC-2998 colon it was 34 µM.
Turning to `O=C(CC1Sc2ccccc2NC1=O)NNc1ccc(F)cc1` (centres undefined), the GI50 in the assay on HCT-15 colon was 6.76 µM; in the assay on SF-295 CNS it was 12.7 µM; in the assay with SK-MEL-2 melanoma, 72.9 µM; in the assay on 786-0 renal, 29.5 µM; in the assay with SR leukemia, 14.4 µM; with A549 NSCLC, 74 µM. The GI50 in the assay with MALME-3M melanoma is greater than 100 µM; in the assay with HCC-2998 colon, 30.9 µM. Further, the TGI with HCT-15 colon, in the assay on SF-295 CNS, in the assay on SK-MEL-2 melanoma, in the assay with 786-0 renal, with SR leukemia and with A549 NSCLC was greater than 100 µM throughout. The TGI with MALME-3M melanoma and in the assay with HCC-2998 colon was greater than 100 µM each time.
As for `CC[Si](CC)(CC)OC1[C@@H](O[Si](CC)(CC)CC)[C@@H](CNC(=O)NC)O[C@H]1n1cnc2c(NC(=O)Nc3ccccc3)ncnc21` (some centres undefined), the GI50 in the assay with HCT-15 colon is 3.78 µM; in the assay with SF-295 CNS it was 2.89 µM; with SK-MEL-2 melanoma, 2.49 µM; with 786-0 renal, 2.96 µM; in the assay with SR leukemia, 2.36 µM; in the assay on A549 NSCLC, 3.14 µM. Further, the results for the GI50 with MALME-3M melanoma and in the assay on HCC-2998 colon were 2.39 µM and 3.22 µM, respectively. The TGI in the assay with HCT-15 colon is greater than 100 µM; in the assay with SF-295 CNS, 11.7 µM; in the assay with SK-MEL-2 melanoma, 5.9 µM; with 786-0 renal, 10.7 µM; in the assay on SR leukemia, 5.2 µM; with A549 NSCLC, greater than 100 µM. Further, the results for the TGI in the assay on MALME-3M melanoma and with HCC-2998 colon were 6.67 µM and 16.2 µM, respectively.
